Source: ChEMBL document CHEMBL3272110, “Synthesis and biological properties of 4-amino- and 4-bromo-4-norpyridoxol. New approaches for the modification of the 4 position of vitamin B6” (1976)
Activity calls are given as the source filed them. No cut-off for these calls is given here.

How the values were obtained:
[1] = system: TA3; experiment: Growth inhibition of mouse TA3 cells at 10^-4 M; type: functional
[2] = system: TA3; experiment: Growth inhibition of mouse TA3 cells; type: functional

SMILES | growth inhibition (GI) [1] | ID50 [2] [×10⁻⁵ M] | other results
Cc1ncc(CO)c(O)c1O | inactive | – | –
Br.Cc1ncc(CO)c(Br)c1O | – | 1 | –
Cc1ncc(CO)c(C(F)(F)F)c1O | – | 2 | –
Cc1ncc(CBr)c(N)c1O | – | – | inhibition of growth at 100 µM ([1]; read-out: GI): 30%
Cc1ncc(CO)c(/C=N/O)c1O | – | 8 | –
Cc1ncc(CO)c(N)c1O | inactive | – | –
